Patent publication US20210260051A1, “COMBINATION OF EZH2 INHIBITOR AND CHECKPOINT THERAPY FOR THE TREATMENT OF CANCER” (Board of Regents, The University of Texas System, priority 2018, published 2021)

Columns and labels:
EZH2 [1] = test: EZH2 expression in peripheral CD4 T cells of patients with metastatic melanoma (RNA sequencing); type: in vivo, human; conditions: after three doses vs baseline, FIG. 2B
Excerpt: (§1) FIGS. 2A-2C: Ipilimumab increases EZH2 expression in T cells. (FIG. 2A) Unsupervised hierarchical cluster analysis of RNA sequencing data from the peripheral CD4 T cells of patients with metastatic melanoma before and after 3 doses of ipilimumab therapy (week 7). (FIG. 2B) Matched pair analysis of EZH2 expression before and after ipilimumab therapy. (FIG. 2C) Ezh2 expression in peripheral CD4 T cells from patients with metastatic prostate cancer at baseline and after 3 doses of ipilimumab therapy. (2 tailed student t test was used to determine significance; **p<0.01).
T cell activation by CD28 signaling induces EZH2 expression (DuPage et al., 2015). It was postulated that exaggerated CD28 signaling due to anti-CTLA-4 therapy would increase EZH2 expression in T cells. To test this hypothesis, peripheral CD4 T cells were isolated from patients with metastatic melanoma who received ipilimumab as the first line of therapy for metastatic disease, at baseline and after three doses of ipilimumab therapy.
Patient samples. […]
RNA sequencing. […] For bioinformatics analysis, the raw reads were aligned to the mm10 reference genome using TopHat2. HTSeq count was used to count the raw reads that were uniquely mapped to each gene. DESeq2 was then applied to normalize the raw read counts and identify the differentially expressed genes between the groups. […]

EZH2 [2] = test: EZH2 expression in peripheral CD4 T cells of patients with metastatic prostate cancer; type: in vivo, human; conditions: after three doses vs baseline, FIG. 2C
Excerpt: as §1
(§2) Next, EZH2 expression was confirmed in peripheral CD4 T cells isolated from patients with metastatic prostate cancer at baseline and after three doses of ipilimumab (Subudhi et al., 2016). Like in patients with metastatic melanoma, increased EZH2 expression was found in CD4 T cells following ipilimumab therapy (FIG. 2C) that inversely correlated with prostate-specific antigen progression (FIG. 6). Next, EZH2 expression was evaluated on human CD4 effector T cells (CD4^+CD45RO^−CD45RA^+CCR7^−), regulatory T cells (CD4^+CD25^+FoxP3^+) and CD8 T cells sorted from peripheral blood of at baseline and post-ipilimumab therapy.
Patient samples. Metastatic melanoma samples were obtained from patients who received ipilimumab as the standard of care. […]

EZH2 [3] = test: flow cytometry of EZH2 expression in sorted peripheral T cell subsets before and after ipilimumab; type: in vivo, human; conditions: peripheral blood, post-ipilimumab vs baseline; FIG. 7
Excerpt: FIG. 7: Flow cytometry analysis of EZH2 expression on CD4^+CD45RO^−CD45RA+CCR7^− (CD4 T effector, Teff), CD4^+CD25^+FoxP3^+ (T regulatory, T-reg) and CD8 T cells derived from peripheral blood mononuclear cells of patients with metastatic melanoma at baseline and after three doses of ipilimumab. Matched pair analysis of Ezh2 expression before and after ipilimumab therapy. Student t-test was used for significance (**p<0.01, *p<0.05).
as §2, with “Like in patients with metastatic melanoma, increased EZH2 expression was found in CD4 T cells following ipilimumab therapy (FIG. 2C) that inversely correlated with prostate-specific antigen progression (FIG. 6).” left out
Tissue processing and flow cytometry. […] Staining with intracellular anti-Foxp3 (eBioscience, FJK-16 s), […] (eBioscience, PC61.5), antiKi-67 (eBioscience, SolA15), antiIFN-γ (BioLegend, XMG1.2), anti-TNF-α (BioLegend, MP6-XT22), and anti-EZH2 (Cell Signaling Technology, D2C9) were analyzed by flow cytometry according to the manufacturers’ instructions. Flow cytometry data were acquired on BD LSR II (BD Biosciences) and analyzed using FlowJo software (Tree Star, Ashland, Oreg.).

[4] = patients, in combination with other immune checkpoint therapy such as Nivolumab; cited from earlier work

ipilimumab: a fully human monoclonal immunoglobulin G1 antibody that blocks cytotoxic T lymphocyte associated protein 4
EZH2 expression in peripheral CD4 T cells (EZH2 [1]): increase | EZH2 expression in CD4 T cells (EZH2 [2]): increased | EZH2 expression in CD4 effector T cells, regulatory T cells and CD8 T cells (EZH2 [3]): increased in all three T cell subtypes | side effect profile [4]: manageable side effect profile
